# Experimental data published in ChEMBL document CHEMBL1201862, “PubChem BioAssay data set” (2004).
#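 A five-concentration, 48-hour dose response in 96-well plates underlies each endpoint, interpolated linearly between surrounding concentrations. Here, GI50 denotes the concentration required for 50% inhibition of growth.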 Calls of active or inactive are those of the source. Rule as the data show it: active = GI50 up to about 1.1 µM and inactive = higher.
# Legend:
# Test in all cases: NCI anticancer screen, dose series, 48 h
# SK-MEL-5 = tested on: SK-MEL-5
# OVCAR-4 = tested on: OVCAR-4
# M19-MEL = tested on: M19-MEL
# U-251 = tested on: U-251
# SK-MEL-28 = tested on: SK-MEL-28
# RXF 393 = tested on: RXF 393
# SK-OV-3 = tested on: SK-OV-3
# OVCAR-5 = tested on: OVCAR-5
# HCT-116 = tested on: HCT-116
# KM12 = tested on: KM12
# LXFL 529 = tested on: LXFL 529
# HT-29 = tested on: HT-29
# HCT-15 = tested on: HCT-15
# TK-10 = tested on: TK-10
# ACHN = tested on: ACHN
# HOP-92 = tested on: HOP-92
# SNB-19 = tested on: SNB-19
# K562 = tested on: K562
# SK-MEL-2 = tested on: SK-MEL-2
# DMS-273 = tested on: DMS-273
# UACC-257 = tested on: UACC-257
# EKVX = tested on: EKVX
# DMS-114 = tested on: DMS-114
# SW-620 = tested on: SW-620
# MOLT-4 = tested on: MOLT-4
# A549 = tested on: A549
# OVCAR-3 = tested on: OVCAR-3
# SF-295 = tested on: SF-295
# SR = tested on: SR
# HCC 2998 = tested on: HCC 2998
# UO-31 = tested on: UO-31
# CAKI-1 = tested on: CAKI-1
# KM-20L2 = tested on: KM-20L2
# NCI-H522 = tested on: NCI-H522
# OVCAR-8 = tested on: OVCAR-8
# SNB-75 = tested on: SNB-75
# RPMI-8226 = tested on: RPMI-8226
# SN12C = tested on: SN12C
# SNB-78 = tested on: SNB-78
# IGROV-1 = tested on: IGROV-1
# Malme-3M = tested on: Malme-3M
# UACC-62 = tested on: UACC-62
# 786-0 = tested on: 786-0
# SF-268 = tested on: SF-268
# SF-539 = tested on: SF-539
# NCI-H226 = tested on: NCI-H226
# NCI-H23 = tested on: NCI-H23
# M14 = tested on: M14
# HL-60 = tested on: HL-60
# COLO 205 = tested on: COLO 205
# HOP-62 = tested on: HOP-62
# CCRF-CEM = tested on: CCRF-CEM
# LOX IMVI = tested on: LOX IMVI
# DLD-1 = tested on: DLD-1
# NCI-H460 = tested on: NCI-H460
structure (smiles),measurement,setting,value
CCOC(=O)N1CCC(=O)C[C@@H]1C/C=C/P1(=O)O[C@H](c2ccccc2)C(C)N1C(C)C (stereo partly drawn),GI50,SK-MEL-5,> 100 µM (inactive)
same,GI50,OVCAR-4,> 100 µM (inactive)
same,GI50,M19-MEL,> 100 µM (inactive)
same,GI50,U-251,> 100 µM (inactive)
same,GI50,SK-MEL-28,> 100 µM (inactive)
same,GI50,RXF 393,> 100 µM (inactive)
same,GI50,SK-OV-3,> 100 µM (inactive)
same,GI50,OVCAR-5,> 100 µM (inactive)
same,GI50,HCT-116,> 100 µM (inactive)
same,GI50,KM12,> 100 µM (inactive)
same,GI50,LXFL 529,> 100 µM (inactive)
same,GI50,HT-29,> 100 µM (inactive)
same,GI50,HCT-15,> 100 µM
same,GI50,TK-10,> 100 µM (inactive)
same,GI50,ACHN,> 100 µM (inactive)
same,GI50,HOP-92,> 100 µM (inactive)
same,GI50,SNB-19,> 100 µM (inactive)
same,GI50,K562,> 100 µM (inactive)
same,GI50,SK-MEL-2,> 100 µM (inactive)
same,GI50,DMS-273,> 100 µM (inactive)
same,GI50,UACC-257,> 100 µM (inactive)
same,GI50,EKVX,> 100 µM (inactive)
same,GI50,DMS-114,> 100 µM (inactive)
same,GI50,SW-620,> 100 µM (inactive)
same,GI50,MOLT-4,> 100 µM (inactive)
same,GI50,A549,> 100 µM (inactive)
same,GI50,OVCAR-3,> 100 µM (inactive)
same,GI50,SF-295,> 100 µM (inactive)
same,GI50,SR,> 100 µM (inactive)
same,GI50,HCC 2998,> 100 µM (inactive)
same,GI50,UO-31,> 100 µM (inactive)
same,GI50,CAKI-1,> 100 µM (inactive)
same,GI50,KM-20L2,> 100 µM (inactive)
same,GI50,NCI-H522,> 100 µM (inactive)
same,GI50,OVCAR-8,> 100 µM (inactive)
same,GI50,SNB-75,> 100 µM (inactive)
same,GI50,RPMI-8226,> 100 µM (inactive)
same,GI50,SN12C,> 100 µM (inactive)
same,GI50,SNB-78,> 100 µM (inactive)
same,GI50,IGROV-1,> 100 µM (inactive)
same,GI50,Malme-3M,> 100 µM (inactive)
same,GI50,UACC-62,> 100 µM (inactive)
same,GI50,786-0,> 100 µM (inactive)
same,GI50,SF-268,> 100 µM (inactive)
same,GI50,SF-539,> 100 µM (inactive)
same,GI50,NCI-H226,> 100 µM (inactive)
same,GI50,NCI-H23,> 100 µM (inactive)
CC(C)c1ccc2c(c1)CCC1C(C)(C)[C@@H](O)CC[C@]21C (stereo partly drawn),GI50,SK-MEL-5,17.3 µM (inactive)
same,GI50,M14,27.9 µM (inactive)
same,GI50,OVCAR-4,56.8 µM (inactive)
same,GI50,M19-MEL,19.4 µM (inactive)
same,GI50,U-251,22.4 µM (inactive)
same,GI50,SK-MEL-28,44.5 µM (inactive)
same,GI50,RXF 393,21.1 µM (inactive)
same,GI50,SK-OV-3,68.7 µM (inactive)
same,GI50,OVCAR-5,18.8 µM (inactive)
same,GI50,HL-60,17.7 µM (inactive)
same,GI50,HCT-116,18.5 µM (inactive)
same,GI50,KM12,22.3 µM (inactive)
same,GI50,LXFL 529,47.3 µM (inactive)
same,GI50,HT-29,16.3 µM (inactive)
same,GI50,HCT-15,32.7 µM
same,GI50,TK-10,54 µM (inactive)
same,GI50,ACHN,47.4 µM (inactive)
same,GI50,HOP-92,23.5 µM (inactive)
same,GI50,SNB-19,52.4 µM (inactive)
same,GI50,K562,24.9 µM (inactive)
same,GI50,DMS-273,31.8 µM (inactive)
same,GI50,COLO 205,18.6 µM (inactive)
same,GI50,HOP-62,19.3 µM (inactive)
same,GI50,DMS-114,34.8 µM (inactive)
same,GI50,MOLT-4,22.1 µM (inactive)
same,GI50,CCRF-CEM,27.9 µM (inactive)
same,GI50,A549,30.6 µM (inactive)
same,GI50,OVCAR-3,34 µM (inactive)
same,GI50,SF-295,18.3 µM (inactive)
same,GI50,SR,16.5 µM (inactive)
same,GI50,HCC 2998,24.8 µM (inactive)
same,GI50,UO-31,69.5 µM (inactive)
same,GI50,CAKI-1,50.1 µM (inactive)
same,GI50,LOX IMVI,15.1 µM (inactive)
same,GI50,KM-20L2,21.4 µM (inactive)
same,GI50,NCI-H522,25 µM (inactive)
same,GI50,OVCAR-8,36.4 µM (inactive)
same,GI50,SNB-75,19.6 µM (inactive)
same,GI50,RPMI-8226,21.2 µM (inactive)
same,GI50,SN12C,20.9 µM (inactive)
same,GI50,SNB-78,47.4 µM (inactive)
same,GI50,IGROV-1,> 100 µM (inactive)
same,GI50,Malme-3M,17 µM (inactive)
same,GI50,UACC-62,42.3 µM (inactive)
same,GI50,786-0,22.5 µM (inactive)
same,GI50,DLD-1,36.6 µM (inactive)
same,GI50,SF-268,39 µM (inactive)
same,GI50,SF-539,22.3 µM (inactive)
same,GI50,NCI-H226,18.7 µM (inactive)
same,GI50,NCI-H23,29.8 µM (inactive)
same,GI50,NCI-H460,17.9 µM (inactive)
